PMC11475281, “A Novel Liver Cancer-Selective Histone Deacetylase Inhibitor Is Effective against Hepatocellular Carcinoma and Induces Durable Responses with Immunotherapy” (ACS Pharmacology & Translational Science, 2024)

The compounds below were run on A549 (lung adenocarcinoma) (assay: MTS cell viability assay, 72 h). Conditions: Homo sapiens, A549; Table S2; read-out: Anti-proliferation IC50 A549.
Format: cell-based
Description: (§1) We then screened STR-V-53 and all the synthesized glycosylated HDACi for their effects on the viability of three cell lines: A549 (lung adenocarcinoma), Hep-G2 (HCC), and VERO (a normal kidney epithelial cell). We used SORA and STR-V-48, a previously disclosed nonglycosylated compound, as controls.[25] […] Additionally, compound STR-V-167, the peracetylated analog of STR-V-53, largely retained the Hep-G2 selectivity of STR-V-53 (Table S2). Subsequently, we evaluated the effects of STR-V-53 on cell proliferation using a panel of human HCC cell lines (Huh-7, SK-Hep-1, and Hep3B) as well as Kupffer cells (liver resident macrophages) by MTS assay. We observed that STR-V-53 is 7- to 16-fold more cytotoxic against these HCC cell lines relative to the Kupffer cells (Figure 1g). […] Based on their weak HDAC and cell proliferation inhibition activities, we de-emphasized further evaluation of the class III compounds.
(§2) 10-017-CV), supplemented with 10% fetal bovine serum (FBS) (Corning, 35-010-CV). Hep-G2 cells were cultured in phenol red-free Minimum Essential Medium (MEM) (Corning, 17-305-CV), supplemented with 10% fetal bovine serum (FBS). SK-Hep-1 in ATCC-formulated EMEM (ATCC® 30–2003™); Huh-7 in DMEM (containing 4 mM L-glutamine and 1 g/L glucose) with […]
(§3) Kupffer Cell Media (Sekisui XenoTech, LLC, Cat. #K8700). Cells were seeded into a 96-well plate (2000 counts/100uL) for 24 h prior to treatment and then treated with various drug concentrations for 72 h. All drugs were dissolved in media with DMSO concentration maintained at 1%. The effect of compounds on cell viability was measured using the MTS assay (CellTiter 96 Aqueous One Solution and CellTiter 96 Non-Radioactive Cell Proliferation Assays, Promega, Madison, WI) as described by the manufacturer. IC50s were determined using Prism GraphPad 8. […]

Row | Compound | IC50 [nM]
1 | CNC(=O)c1cc(Oc2ccc(NC(=O)Nc3ccc(Cl)c(C(F)(F)F)c3)cc2)ccn1 [SORA, sorafenib, reference compound] | 18100 ± 2900
2 | COc1ccc2cc(-c3cn(CCCCCCC(=O)NO)nn3)ccc2c1 [STR-V-48, N-hydroxy-7-(4-(6-methoxynaphthalen-2-yl)-1H-1,2,3-triazol-1-yl)heptanamide, reference compound] | 1400 ± 200

Same assay, conditions: Table S2; read-out: Anti-proliferation IC50 A549

Row | Compound | IC50 [nM]
3 | O=C(CCCCCCn1cc(-c2ccc3cc(O[C@@H]4O[C@H](CO)[C@@H](O)[C@H](O)[C@H]4O)ccc3c2)nn1)NO [STR-II-36] | 20100 ± 1100
4 | CC(=O)O[C@H]1[C@H](Oc2ccc(-c3cn(CCCCCCC(=O)NO)nn3)cc2)O[C@H](C)C[C@@H]1N(C)C [STR-V-165] | 33700 ± 1800

These compounds were tested on VERO (a normal kidney epithelial cell) (assay: MTS cell viability assay, 72 h). Conditions: Chlorocebus sabaeus, Vero; Table S2; read-out: Anti-proliferation IC50 VERO.
Format: cell-based
Description: as §1, §2, §3

Row | Compound | IC50 [nM]
5 | CNC(=O)c1cc(Oc2ccc(NC(=O)Nc3ccc(Cl)c(C(F)(F)F)c3)cc2)ccn1 [SORA, sorafenib, reference compound] | 12200 ± 100
6 | COc1ccc2cc(-c3cn(CCCCCCC(=O)NO)nn3)ccc2c1 [STR-V-48, N-hydroxy-7-(4-(6-methoxynaphthalen-2-yl)-1H-1,2,3-triazol-1-yl)heptanamide, reference compound] | 200 ± 50

Same assay, conditions: Table S2; read-out: Anti-proliferation IC50 VERO

Row | Compound | IC50 [nM]
7 | O=C(CCCCCCn1cc(-c2ccc3cc(O[C@@H]4O[C@H](CO)[C@@H](O)[C@H](O)[C@H]4O)ccc3c2)nn1)NO [STR-II-36] | 33600 ± 5500
8 | CC(=O)O[C@H]1[C@H](Oc2ccc(-c3cn(CCCCCCC(=O)NO)nn3)cc2)O[C@H](C)C[C@@H]1N(C)C [STR-V-165] | 76400

The compounds below were run on Hep-G2 (HCC) (assay: MTS cell viability assay, 72 h). Conditions: Homo sapiens, HepG2; Table S2; read-out: Anti-proliferation IC50 Hep-G2.
Format: cell-based, human
Description: as §1, §2, §3

Row | Compound | IC50 [nM]
9 | CNC(=O)c1cc(Oc2ccc(NC(=O)Nc3ccc(Cl)c(C(F)(F)F)c3)cc2)ccn1 [SORA, sorafenib, reference compound] | 3700 ± 400
10 | COc1ccc2cc(-c3cn(CCCCCCC(=O)NO)nn3)ccc2c1 [STR-V-48, N-hydroxy-7-(4-(6-methoxynaphthalen-2-yl)-1H-1,2,3-triazol-1-yl)heptanamide, reference compound] | 400 ± 40

Same assay, conditions: Table S2; read-out: Anti-proliferation IC50 Hep-G2

Row | Compound | IC50 [nM]
11 | O=C(CCCCCCn1cc(-c2ccc3cc(O[C@@H]4O[C@H](CO)[C@@H](O)[C@H](O)[C@H]4O)ccc3c2)nn1)NO [STR-II-36] | 7500 ± 800
12 | CC(=O)O[C@H]1[C@H](Oc2ccc(-c3cn(CCCCCCC(=O)NO)nn3)cc2)O[C@H](C)C[C@@H]1N(C)C [STR-V-165] | 9600 ± 3400

Same assay, conditions: ratio of VERO to Hep-G2 cytotoxicity

Row | Compound | Hep-G2-selectivity (VERO/Hep-G2)
13 | CNC(=O)c1cc(Oc2ccc(NC(=O)Nc3ccc(Cl)c(C(F)(F)F)c3)cc2)ccn1 [SORA, sorafenib, reference compound] | about three times more cytotoxic
14 | CC(=O)O[C@H]1[C@H](Oc2ccc(-c3cn(CCCCCCC(=O)NO)nn3)cc2)O[C@H](C)C[C@@H]1N(C)C [STR-V-165] | 8 fold

Each compound was assayed against HDAC1 (Homo sapiens, UniProt Q13547) (assay: HDAC isoform inhibition (BPS Bioscience)). Conditions: read-out: HDAC1 IC50; Table S1.
HDAC1, sequence (Q13547 whole entry, canonical isoform): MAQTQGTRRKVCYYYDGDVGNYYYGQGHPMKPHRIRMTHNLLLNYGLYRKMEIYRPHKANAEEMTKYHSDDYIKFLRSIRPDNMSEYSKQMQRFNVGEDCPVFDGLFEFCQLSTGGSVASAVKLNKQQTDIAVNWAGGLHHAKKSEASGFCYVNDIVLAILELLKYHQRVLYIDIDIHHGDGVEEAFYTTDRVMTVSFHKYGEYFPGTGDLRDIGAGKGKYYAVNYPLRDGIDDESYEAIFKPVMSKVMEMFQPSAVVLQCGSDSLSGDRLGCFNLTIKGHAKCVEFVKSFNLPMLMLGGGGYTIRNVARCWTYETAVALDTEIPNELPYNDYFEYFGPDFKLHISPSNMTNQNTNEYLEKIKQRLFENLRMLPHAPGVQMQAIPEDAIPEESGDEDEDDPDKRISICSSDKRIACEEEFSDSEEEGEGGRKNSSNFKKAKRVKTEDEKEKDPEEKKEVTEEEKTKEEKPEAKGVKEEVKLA

Row | Compound | IC50 [nM]
15 | O=C(CCCCCCn1cc(-c2ccc3cc(O[C@@H]4O[C@H](CO)[C@@H](O)[C@H](O)[C@H]4O)ccc3c2)nn1)NO [STR-II-36] | 3.28
16 | CC(=O)O[C@H]1[C@H](Oc2ccc(-c3cn(CCCCCCC(=O)NO)nn3)cc2)O[C@H](C)C[C@@H]1N(C)C [STR-V-165] | 10.3

These compounds were tested against HDAC2 (Homo sapiens, UniProt Q92769) (assay: HDAC isoform inhibition (BPS Bioscience)). Conditions: read-out: HDAC2 IC50; Table S1.
HDAC2, sequence (Q92769 whole entry, canonical isoform): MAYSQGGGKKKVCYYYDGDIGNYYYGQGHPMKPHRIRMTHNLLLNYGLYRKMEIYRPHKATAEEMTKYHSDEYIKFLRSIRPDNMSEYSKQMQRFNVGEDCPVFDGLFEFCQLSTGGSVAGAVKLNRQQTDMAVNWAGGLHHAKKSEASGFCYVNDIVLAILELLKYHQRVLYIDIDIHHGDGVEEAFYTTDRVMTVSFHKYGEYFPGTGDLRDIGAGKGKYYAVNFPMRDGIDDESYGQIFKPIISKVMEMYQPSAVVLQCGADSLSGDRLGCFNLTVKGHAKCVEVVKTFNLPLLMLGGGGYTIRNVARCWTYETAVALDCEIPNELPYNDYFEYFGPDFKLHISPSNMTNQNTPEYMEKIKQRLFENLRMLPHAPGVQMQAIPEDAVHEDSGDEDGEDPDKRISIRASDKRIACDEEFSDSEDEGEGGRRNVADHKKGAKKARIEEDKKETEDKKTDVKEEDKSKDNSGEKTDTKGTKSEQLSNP

Row | Compound | IC50 [nM]
17 | O=C(CCCCCCn1cc(-c2ccc3cc(O[C@@H]4O[C@H](CO)[C@@H](O)[C@H](O)[C@H]4O)ccc3c2)nn1)NO [STR-II-36] | 10.4
18 | CC(=O)O[C@H]1[C@H](Oc2ccc(-c3cn(CCCCCCC(=O)NO)nn3)cc2)O[C@H](C)C[C@@H]1N(C)C [STR-V-165] | 27.5

The compounds below were run against T1, HDAC6 (Homo sapiens, UniProt Q9UBN7) (assay: HDAC isoform inhibition (BPS Bioscience)). Conditions: read-out: HDAC6 IC50; Table S1.
T1 sequence (Q9UBN7 1-1215): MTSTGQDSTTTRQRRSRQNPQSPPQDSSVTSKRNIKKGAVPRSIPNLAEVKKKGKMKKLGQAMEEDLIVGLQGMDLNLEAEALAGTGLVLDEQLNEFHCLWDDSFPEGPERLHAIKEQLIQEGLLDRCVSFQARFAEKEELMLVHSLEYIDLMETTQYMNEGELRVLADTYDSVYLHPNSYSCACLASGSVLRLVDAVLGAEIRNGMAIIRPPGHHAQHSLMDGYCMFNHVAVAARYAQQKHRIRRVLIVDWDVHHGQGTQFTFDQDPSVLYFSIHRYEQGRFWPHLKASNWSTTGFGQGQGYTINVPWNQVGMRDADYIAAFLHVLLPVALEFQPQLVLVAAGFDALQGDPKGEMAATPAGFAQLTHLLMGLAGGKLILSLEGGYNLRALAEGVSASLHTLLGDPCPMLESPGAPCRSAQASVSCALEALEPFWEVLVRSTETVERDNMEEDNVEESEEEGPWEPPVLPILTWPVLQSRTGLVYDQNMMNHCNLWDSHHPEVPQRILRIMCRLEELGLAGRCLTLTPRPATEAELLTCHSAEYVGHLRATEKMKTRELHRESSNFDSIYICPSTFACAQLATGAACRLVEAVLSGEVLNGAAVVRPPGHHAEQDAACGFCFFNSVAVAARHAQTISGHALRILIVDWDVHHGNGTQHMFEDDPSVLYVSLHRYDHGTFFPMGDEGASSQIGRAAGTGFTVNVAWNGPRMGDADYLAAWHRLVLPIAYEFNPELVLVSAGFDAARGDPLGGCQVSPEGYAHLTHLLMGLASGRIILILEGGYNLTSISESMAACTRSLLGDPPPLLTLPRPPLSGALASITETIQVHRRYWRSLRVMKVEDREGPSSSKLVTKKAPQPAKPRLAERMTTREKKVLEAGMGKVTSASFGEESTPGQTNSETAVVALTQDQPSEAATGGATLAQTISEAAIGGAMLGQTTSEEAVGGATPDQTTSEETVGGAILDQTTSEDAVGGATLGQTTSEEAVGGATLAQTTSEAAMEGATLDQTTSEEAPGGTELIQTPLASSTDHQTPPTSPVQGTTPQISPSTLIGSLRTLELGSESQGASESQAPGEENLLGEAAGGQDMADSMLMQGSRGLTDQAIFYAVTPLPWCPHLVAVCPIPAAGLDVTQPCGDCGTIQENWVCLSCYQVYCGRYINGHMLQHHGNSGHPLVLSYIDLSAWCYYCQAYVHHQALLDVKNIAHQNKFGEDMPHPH

Row | Compound | IC50 [nM]
19 | O=C(CCCCCCn1cc(-c2ccc3cc(O[C@@H]4O[C@H](CO)[C@@H](O)[C@H](O)[C@H]4O)ccc3c2)nn1)NO [STR-II-36] | 0.72
20 | CC(=O)O[C@H]1[C@H](Oc2ccc(-c3cn(CCCCCCC(=O)NO)nn3)cc2)O[C@H](C)C[C@@H]1N(C)C [STR-V-165] | 5.22

What follows are compounds tested against T2, HDAC8 (Homo sapiens, UniProt Q9BY41) (assay: HDAC isoform inhibition (BPS Bioscience)). Conditions: read-out: HDAC8 IC50; Table S1.
T2 sequence (Q9BY41 1-377): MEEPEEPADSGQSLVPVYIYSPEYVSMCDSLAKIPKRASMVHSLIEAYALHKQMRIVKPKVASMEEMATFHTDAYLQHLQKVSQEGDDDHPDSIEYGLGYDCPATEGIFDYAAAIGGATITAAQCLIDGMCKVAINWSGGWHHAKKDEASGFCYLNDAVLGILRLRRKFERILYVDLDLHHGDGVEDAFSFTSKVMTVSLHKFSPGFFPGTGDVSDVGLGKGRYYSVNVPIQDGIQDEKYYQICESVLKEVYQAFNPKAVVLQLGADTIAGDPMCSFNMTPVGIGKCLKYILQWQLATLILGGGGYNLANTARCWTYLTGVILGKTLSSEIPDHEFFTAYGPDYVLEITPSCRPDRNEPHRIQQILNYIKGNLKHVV

Row | Compound | IC50 [nM]
21 | O=C(CCCCCCn1cc(-c2ccc3cc(O[C@@H]4O[C@H](CO)[C@@H](O)[C@H](O)[C@H]4O)ccc3c2)nn1)NO [STR-II-36] | 319
22 | CC(=O)O[C@H]1[C@H](Oc2ccc(-c3cn(CCCCCCC(=O)NO)nn3)cc2)O[C@H](C)C[C@@H]1N(C)C [STR-V-165] | 806
